Reference: patent US20210024628A1, “METHODS FOR MODULATING INNATE LYMPHOID CELL ACTIVITY, ANTIBODY DRUG CONJUGATES AND USES IN THERAPY” (INSERM (INSTITUT NATIONAL DE LA SANTÉ ET DE LA RECHERCHE …, priority 2018, published 2021)

What was measured:
NK cells [1] = assay: In vitro splenocyte stimulation with cytokines: PD1 expression (FACS); format: cell-based, mice
Protocol: (§1) Splenocytes from control and GR^Ncr1-iCre mice were stimulated in vitro in complete culture medium (RPMI 10% FCS, 100 μg/ml penicillin/streptomycin, 2 mM 1-glutamine, 1 mM sodium pyruvate, and 0.01 M Hepes) with: 25 ng/ml IL-12 (eBiosciences), 25 ng/ml IL-15 (Peprotech) and 20 ng/ml IL-18 (MBL) alone or in combination, or with PMA (200 ng/ml, Sigma) and ionomycin (1 μg/ml, Sigma). For NK1.1 stimulation 96 well plates (Immulon 2HB) were coated overnight at 37° C. with 2.5 ul/well anti-NK1.1 Ab (PK136, eBiosciences) or IgG2a isotype control before cell plating. During stimulation, 250 or 500 nM corticosterone (Sigma; dissolved in ethanol) or the same volume of vehicle alone were added to the medium. Cells were stimulated at 37° C. in the presence of Golgi Stop and Golgi Plug from BD Biosciences. After 4 h of stimulation, the cells were washed and stained for FACS analysis. For CD107a staining, 2.5 ul/well of anti-CD107a-FITC antibody (1D4B, BD Biosciences) were added during stimulation.
Single-cell suspensions were obtained from the spleen by scratching it through 70 um cell strainer, or from the liver by scratching it through 100 um cell strainer and subsequent lymphocyte isolation on a 37.5%-67.5% Percoll gradient. For isolation of small intestine lamina propria cells, intestines were cut longitudinally, then transversally in 2-3 cm pieces, thoroughly rinsed with PBS, and shaken for 30 minutes in PBS containing 10% FBS, 15 mM Hepes and 5 mM EDTA to remove intraepithelial and epithelial cells. Intestines were then digested with collagenase VIII (300UI/mL; Sigma) in complete RPMI for 45 minutes at 37° C. under agitation, and lamina propria lymphocytes were isolated on a 40%-100% Percoll gradient. Cells were incubated with the Fc blocking antibody (2.4G2) and with a fixable blue dead-cell stain kit (Invitrogen). Surface molecules were stained with antibodies against: CD45.2 (104), CD3 (145-2C11), CD19 (1D3), NK1.1 (PK136), CD49a (Ha31/8), CD11b (M1/70), MHCII (M5/114.15.2), TCRb (H57-597), PD1 (J43, and Hamster IgG2 isotype control), PDL1 (MIHS) from BD Biosciences; NKp46 (29A1.4), CD49b (DX5), F4/80 (BM8), Ly49H (3D10) from eBioscience; CD11c (N418), PD1 (RMP1-30, and Rat IgG2b isotype control), PDL2 (TY25) and Ly6G (1A8) from Biolegend. For intracellular staining, cells were fixed and permeabilized with an intracellular staining kit (eBioscience), and the following antibodies were used: anti-IFN-(XMG1.2) from Biolegend; anti-granzyme B (GB11), anti-Rort (Q31-378), anti-IL17 (TC11-18H10), anti-Ki67 (B56) from BD Biosciences, anti-IL-22 (JOP eBioscience, coupled to Alexa Fluor 647 with an antibody labeling kit from Life Technologies), anti-GR XP rabbit mAb (D8H2) and rabbit mAb IgG XP (DA1E) from Cell Signaling Technology. Stained samples were analyzed in a BD LSRII flow cytometer (BD Biosciences). Apoptosis was detected with the FITC Annexin V Apoptosis Detection Kit I from BD Biosciences, according to the manufacturer's protocol.

NK cells [2] = assay: In vitro splenocyte stimulation: NK cell degranulation (CD107a); format: cell-based, mice; conditions: stimulation with anti-NK1.1 antibodies or PMA and ionomycine, data not shown
Protocol: as §1, with “For CD107a staining, 2.5 ul/well of anti-CD107a-FITC antibody (1D4B, BD Biosciences) were added during stimulation.” left out
Single-cell suspensions were obtained from the spleen by scratching it through 70 um cell strainer, or from the liver by scratching it through 100 um cell strainer and subsequent lymphocyte isolation on a 37.5%-67.5% Percoll gradient. […] Stained samples were analyzed in a BD LSRII flow cytometer (BD Biosciences). Apoptosis was detected with the FITC Annexin V Apoptosis Detection Kit I from BD Biosciences, according to the manufacturer's protocol.

C[C@]12C[C@H](O)[C@H]3[C@@H](CCC4=CC(=O)CC[C@@]43C)[C@@H]1CC[C@@H]2C(=O)CO [Corticosterone, (11β)-11,21-Dihydroxypregn-4-ene-3,20-dione]
PD1 expression on NK cells (NK cells [1]; corticosterone (250 or 500 nM) with the combination IL-15+IL-18, splenocytes, 4 h): able to induce PD1 expression on NK cells, in a dose-dependent manner
PD1 expression on NK cells (NK cells [1]; corticosterone alone, splenocytes, 4 h at 37° C.): not able to induce PD1 expression
PD1 induction on T cells (NK cells [1]; corticosterone in addition to IL-15 and IL-18): not observed
PD1 induction on NK cells from GR^Ncr1-iCre mice (NK cells [1]; corticosterone in addition to IL-15 and IL-18, GR-deficient NK cells): not observed
PD1 expression on NK cells (NK cells [1]; corticosterone in the presence of IL-15, splenocytes, 4 h): not able to induce PD1 expression
PD1 expression on NK cells (NK cells [1]; corticosterone with IL-15+IL-18 and addition of IL-12): abrogate this effect
ability of NK cells to degranulate (measured by their CD107a expression) (NK cells [2]): did not affect
